For test [1], the system named is HAP1 MTAP-deleted cell line. Nature of the test: Viability assay, MTAP-deleted cell line. The note with it: Homo sapiens, HAP1, viability assay, MTAP-deleted cell line; read-out: HAP1 MTAP deleted viability. It counts as cell-based. The text has this:
Table 1 additionally indicates IC50 values in a viability assay for the MTAP-deleted cell line (column 10), indicating the effect of treatment with compound on cell survival.

In test [2] the target is T1, PRMT5 (Homo sapiens, UniProt O14744).
T1 construct: purchased Viva (custom protein)
The test is described as follows: PRMT5 biochemical IC50 assay with SAM as cofactor. The note with it: PRMT5, SAM as cofactor; read-out: SAM IC50.

In test [3] the target is T1, PRMT5. Nature of the test: PRMT5 biochemical IC50 assay with MTA as cofactor. The note with it: PRMT5, MTA as cofactor; read-out: MTA IC50.
Test [4] relates to HAP1 MTAP-deleted cell line. Nature of the test: SDMA in-cell western assay, HAP1 MTAP-deleted. It counts as cell-based. The note with it: for IC50: Homo sapiens, HAP1, SDMA in-cell western, HAP1 MTAP-deleted, read-out: HAP 1 MTAP deleted IC50; for MTAP intact/deleted ratio: IC50 ratio HAP1 MTAP-intact / HAP1 MTAP-deleted, SDMA in-cell western. In a few lines: (§1)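 Compounds were tested in HAP1 cells differing only in MTAP status (endogenous expression versus null). Cellular SDMA levels were then measured by in-cell western, giving an IC50 in each background.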

Test [5] concerns the target T1, PRMT5. Nature of the test: PRMT5 biochemical IC50 assay with no cofactor. Conditions: PRMT5, no cofactor; read-out: No Cofactor/rel IC50. The text has this:
Table 1 indicates IC50 values (μM) against PRMT5 for exemplary compounds in the presence of SAM as cofactor, with no cofactor, and with MTA as cofactor, respectively (columns 4-6). […] Ki values can be calculated from the IC50 values as described in the Examples section. As detailed in the Examples section, for the assay performed in the presence of SAM, IC50=Ki×1.5 (Ki=IC50/1.5).

The subject of test [6] is HAP1 MTAP-intact cell line. The test is described as follows: SDMA in-cell western assay, HAP1 MTAP-intact. The note with it: Homo sapiens, HAP1, SDMA in-cell western, HAP1 MTAP-intact; read-out: MTAP HAP1 intact IC50. It counts as cell-based. In a few lines:
as §1

15 compounds from US11999727B2 (Tango Therapeutics, Inc., priority 2020, dated 2024) can be followed below.

T1 sequence (O14744 whole entry): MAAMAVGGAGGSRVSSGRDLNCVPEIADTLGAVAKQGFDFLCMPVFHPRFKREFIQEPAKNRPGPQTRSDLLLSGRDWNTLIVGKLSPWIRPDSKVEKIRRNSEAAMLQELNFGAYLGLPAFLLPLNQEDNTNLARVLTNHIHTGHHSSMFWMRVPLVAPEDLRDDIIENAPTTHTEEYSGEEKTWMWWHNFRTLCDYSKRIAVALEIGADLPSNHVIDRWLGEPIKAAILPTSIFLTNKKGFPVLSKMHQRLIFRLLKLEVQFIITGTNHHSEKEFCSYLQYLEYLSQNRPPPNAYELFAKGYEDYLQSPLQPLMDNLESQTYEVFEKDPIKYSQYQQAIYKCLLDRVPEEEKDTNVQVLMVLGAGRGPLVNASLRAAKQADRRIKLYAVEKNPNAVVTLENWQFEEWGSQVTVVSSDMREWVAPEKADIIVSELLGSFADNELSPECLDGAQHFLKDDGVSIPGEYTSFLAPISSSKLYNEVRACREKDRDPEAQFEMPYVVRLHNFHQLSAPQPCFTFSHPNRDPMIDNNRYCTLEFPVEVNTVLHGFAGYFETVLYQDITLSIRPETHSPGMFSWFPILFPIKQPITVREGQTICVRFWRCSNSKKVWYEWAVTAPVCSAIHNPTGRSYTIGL
T1 sequence (Q9BQA1 whole entry partner): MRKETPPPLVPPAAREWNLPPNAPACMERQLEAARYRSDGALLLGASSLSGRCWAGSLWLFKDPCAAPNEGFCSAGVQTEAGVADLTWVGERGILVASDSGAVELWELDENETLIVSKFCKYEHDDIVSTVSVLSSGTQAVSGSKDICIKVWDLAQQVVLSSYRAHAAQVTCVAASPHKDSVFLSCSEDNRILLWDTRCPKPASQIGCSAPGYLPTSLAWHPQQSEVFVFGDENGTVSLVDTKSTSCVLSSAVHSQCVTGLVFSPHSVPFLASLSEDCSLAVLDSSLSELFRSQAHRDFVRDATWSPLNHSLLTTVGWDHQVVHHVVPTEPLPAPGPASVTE

As for `CCc1ccc([C@@H]2CC[C@@H](C)CN2C(=O)C(=O)Nc2cnc(N)c(C)c2)cn1` (single isomer, unassigned) [Compound 1013], the IC50 in test [1] is 1000 to 10000 nM; on PRMT5 [2], 50 to 500 nM; on PRMT5 [3], less than 50 nM; in test [4], less than 100 nM; on PRMT5 [5] it was 50 to 500 nM; in test [6], 100 to 1000 nM. The MTAP intact/deleted ratio result in test [4] is reported as “B (an IC50 ratio greater than or equal to 3 fold but lower than 10 fold)”.

Regarding `Cc1cc(NC(=O)C(=O)N2C[C@H](C)CC[C@H]2c2ccc(N3CCN(C)CC3)nc2)cnc1N` (single isomer, unassigned) [Compound 1014], the IC50 was less than 1000 nM in test [1]; 50 to 500 nM on PRMT5 [2]; less than 50 nM at PRMT5 [3]; less than 100 nM in test [4]; less than 50 nM on PRMT5 [5]; less than 100 nM in test [6]. Further, the MTAP intact/deleted ratio entry in test [4] was “B (an IC50 ratio greater than or equal to 3 fold but lower than 10 fold)”.

As for `Cc1cc(NC(=O)C(=O)N2C[C@H](C)CC[C@H]2c2ccc(C(F)(F)F)nc2)cnc1N` (single isomer, unassigned) [Compound 1015], the IC50 in test [1] is more than 10000 nM; at PRMT5 [2], more than 500 nM; at PRMT5 [3] it was more than 500 nM; in test [4], more than 1000 nM; at PRMT5 [5], more than 500 nM; in test [6], more than 1000 nM. In test [4], the MTAP intact/deleted ratio result was “C (an IC50 ratio of less than 3 fold)”.

`CCc1ccc([C@H]2CC[C@H](C)CN2C(=O)C(=O)Nc2cnc(N)c(C)c2)cn1` (single isomer, unassigned) [Compound 1016]: the IC50 in test [1] is more than 10000 nM; at PRMT5 [2] it was more than 500 nM; on PRMT5 [3], more than 500 nM; in test [4], more than 1000 nM; on PRMT5 [5] it was more than 500 nM; in test [6], more than 1000 nM. For the same compound, in test [4], the MTAP intact/deleted ratio result is listed as “C (an IC50 ratio of less than 3 fold)”.

As for `Cc1cc(NC(=O)C(=O)N2C[C@@H](C)CC[C@@H]2c2ccc(N3CCN(C)CC3)nc2)cnc1N` (single isomer, unassigned) [Compound 1017], the IC50 in test [1] was less than 1000 nM; on PRMT5 [2], more than 500 nM; on PRMT5 [3] it was more than 500 nM; in test [4], more than 1000 nM; on PRMT5 [5], more than 500 nM; in test [6], more than 1000 nM. In test [4], the MTAP intact/deleted ratio entry was “C (an IC50 ratio of less than 3 fold)”.

On to `Cc1cc(NC(=O)C(=O)N2C[C@@H](C)CC[C@@H]2c2ccc(C(F)F)nc2)cnc1N` (single isomer, unassigned) [Compound 1018], for which the IC50 in test [1] is 1000 to 10000 nM; on PRMT5 [2] it was 50 to 500 nM; on PRMT5 [3], less than 50 nM; in test [4], 100 to 1000 nM; on PRMT5 [5], 50 to 500 nM; in test [6] it was 100 to 1000 nM. Also, the MTAP intact/deleted ratio result in test [4] is “B (an IC50 ratio greater than or equal to 3 fold but lower than 10 fold)”.

Take `Cc1cc(NC(=O)C(=O)N2C[C@@H](C)CC[C@@H]2c2cscn2)cnc1N` (single isomer, unassigned) [Compound 1020]: the IC50 in test [1] is 1000 to 10000 nM; on PRMT5 [2], more than 500 nM; on PRMT5 [3] it was less than 50 nM; in test [4] it was 100 to 1000 nM; on PRMT5 [5] it was 50 to 500 nM; in test [6], more than 1000 nM. Moreover, the MTAP intact/deleted ratio entry in test [4] is recorded as “A (an IC50 ratio greater than or equal to 10 fold)”.

As to `C[C@H]1CC[C@H](c2ccc3sc(C(F)(F)F)nc3c2)N(C(=O)C(=O)Nc2cncc(C(N)=O)c2)C1` (single isomer, unassigned) [Compound 1023], the IC50 in test [1] was less than 1000 nM; on PRMT5 [2] it was 50 to 500 nM; at PRMT5 [3], less than 50 nM; in test [4], less than 100 nM; at PRMT5 [5], less than 50 nM; in test [6], 100 to 1000 nM. For the same compound, the MTAP intact/deleted ratio entry in test [4] is “A (an IC50 ratio greater than or equal to 10 fold)”.

Consider `COc1ncc(NC(=O)C(=O)N2C[C@@H](C)CC[C@@H]2c2ccc3sc(C(F)(F)F)nc3c2)cc1C(N)=O` (single isomer, unassigned) [Compound 1024], for which the IC50 in test [1] was less than 1000 nM; at PRMT5 [2] it was 50 to 500 nM; on PRMT5 [3], less than 50 nM; in test [4], less than 100 nM; at PRMT5 [5] it was less than 50 nM; in test [6], 100 to 1000 nM. Also, the MTAP intact/deleted ratio entry in test [4] is on record as “A (an IC50 ratio greater than or equal to 10 fold)”.

Turning to `Cc1cc(NC(=O)C(=O)N2C[C@H](C)CC[C@H]2c2cscn2)cnc1N` (single isomer, unassigned) [Compound 1028], the IC50 was more than 10000 nM in test [1]; more than 500 nM at PRMT5 [2]; more than 500 nM on PRMT5 [3]; more than 1000 nM in test [4]; more than 500 nM on PRMT5 [5]; more than 1000 nM in test [6]. Further, the MTAP intact/deleted ratio entry in test [4] is on record as “C (an IC50 ratio of less than 3 fold)”.

Regarding `C[C@@H]1CC[C@@H](c2ccc3sc(C(F)(F)F)nc3c2)N(C(=O)C(=O)Nc2cncc(C(N)=O)c2)C1` (single isomer, unassigned) [Compound 1029], the IC50 in test [1] was more than 10000 nM; on PRMT5 [2] it was more than 500 nM; at PRMT5 [3] it was more than 500 nM; in test [4], more than 1000 nM; on PRMT5 [5], more than 500 nM; in test [6], more than 1000 nM. In test [4], the MTAP intact/deleted ratio result was “B (an IC50 ratio greater than or equal to 3 fold but lower than 10 fold)”.

With `COc1ncc(NC(=O)C(=O)N2C[C@@H](C)CC[C@@H]2c2cscn2)cc1C(N)=O` (single isomer, unassigned) [Compound 1033], the IC50 in test [1] was more than 10000 nM; at PRMT5 [2], more than 500 nM; on PRMT5 [3], more than 500 nM; in test [4], more than 1000 nM; at PRMT5 [5], more than 500 nM; in test [6], more than 1000 nM. Besides, in test [4], the MTAP intact/deleted ratio entry is recorded as “B (an IC50 ratio greater than or equal to 3 fold but lower than 10 fold)”.

Take `Cc1cc(NC(=O)C(=O)N2C[C@@H](C)CC[C@@H]2c2ccc3c(cnn3C)c2)cnc1N` (single isomer, unassigned) [Compound 1037]: the IC50 in test [1] is more than 10000 nM; on PRMT5 [2], more than 500 nM; on PRMT5 [3], more than 500 nM; in test [4] it was 100 to 1000 nM; on PRMT5 [5], more than 500 nM; in test [6] it was more than 1000 nM. The MTAP intact/deleted ratio result in test [4] is “A (an IC50 ratio greater than or equal to 10 fold)”.

Consider `Cc1cc(NC(=O)C(=O)N2C[C@@H](C)CC[C@@H]2c2ccc3nn(C)cc3c2)cnc1N` (single isomer, unassigned) [Compound 1040], for which the IC50 in test [1] was more than 10000 nM; on PRMT5 [2], more than 500 nM; at PRMT5 [3], more than 500 nM; in test [4], 100 to 1000 nM; at PRMT5 [5] it was more than 500 nM; in test [6] it was more than 1000 nM. Besides, in test [4], the MTAP intact/deleted ratio result is reported as “A (an IC50 ratio greater than or equal to 10 fold)”.

On to `COc1ncc(NC(=O)C(=O)N2C[C@H](C)CC[C@H]2c2cscn2)cc1C(N)=O` (single isomer, unassigned) [Compound 1042], for which the IC50 in test [1] was 1000 to 10000 nM; at PRMT5 [2], 50 to 500 nM; at PRMT5 [3], less than 50 nM; in test [4], less than 100 nM; at PRMT5 [5], 50 to 500 nM; in test [6] it was more than 1000 nM. Moreover, the MTAP intact/deleted ratio entry in test [4] is reported as “A (an IC50 ratio greater than or equal to 10 fold)”.
